Here are results for nine molecules from paper PMC10343216 (Molecules, 2023).

For series [1] the following is noted: ZINC database ref 39; cited from earlier work.
For the next series, the target named is T1, human 11β-HSD1 (Homo sapiens, UniProt P28845).
T1 construct: Human 11β-HSD1 in liver microsomes catalyzes the conversion of cortisone to cortisol; tissue Iphase (Beijing, China) H2610; host or cells: human liver microsomes (purchased)
Description: Human 11β-HSD1 assay in human liver microsomes (cortisone to cortisol, HPLC-MS/MS). The format is biochemical. Particulars: for IC50 / remaining activity at 100 µM: 200 nM cortisone, 15 min; for IC50: Mean ± SEM, n = 4; for remaining activity at 100 µM: human, 100 µM compound, read-out: 11β-HSD1 residual activity relative to the control (DMSO); for Mode Action: human 11β-HSD1, judged by α and Lineweaver-Burk plot. The procedure:
(§1) The 11β-HSD1 activity was determined by measuring the reductive catalysis of 11keto-steroid substrates, cortisone for human 11β-HSD1 and DHC for rat 11β-HSD1, which were converted to cortisol and CORT, respectively. The 11β-HSD1 assay was carried out as previously described with a minor modification. […] At the end of the reaction, acetonitrile (200 µL, CAT#: UN1648; Sigma) and internal standard testosterone-d5 (IS, T-d5, 10 μL, Zzbio, Shanghai, China) were added to the system, the organic layer was extracted, and 10 µL was injected into the HPLC-MS/MS system to measure cortisol, or CORT, as previously described.
(§2) The amount of cortisol, or CORT, in the organic layer was determined using an Acquity UPLC equipped with a BEH C18 column (2.1 mm, 50 mm, 1.7 m) and a 0.2 mm stainless steel frit filter and an XEVO TQD triple quadrupole mass spectrometer (Waters, Milford, MA, USA), as previously described. The mobile phase was a mixture of solvents A (0.1% formic acid in water) and B (acetonitrile) combined in the following gradient program: 5–5% B (0–0.5 min), 5–95% B (0.5–1.0 min), 95–95% B (1.0–2.0 min), and 95–5% B (2.0–2.1 min). The injection volume was 6 µL, and the flow rate was 0.40 mL/min. Before the second injection, a re-equilibration period of 0.9 min was set. The temperatures were 4 °C for the sample and 40 °C for column. Mass spectrometric detection was carried out using a Waters Corporation XEVO TQD triple quadruple mass spectrometer with an ESI source. For cortisol and IS, the multiple reaction monitoring mode transitions were m/z 358.3→340.3 and m/z 237.2→194.3. Data collection and instrument control were performed using Masslynx 4.1 software (Waters Corp., Milford, MA, USA). Cortisol, or CORT, standards were prepared by dissolving them in methanol. […] The enzymatic activity obtained by measuring the conversion rate (%) of cortisone to cortisol for human 11β-HSD1 or DHC to CORT for rat 11β-HSD1 was calculated.
(§3) The time curve of the 11β-HSD1 reaction was prepared by a linear regression using GraphPad version 8.0 (GraphPad, San Diego, CA, USA). […] The lineweaver-Burk plot after linear regression was also carried out to judge the mode of action.
Background: Microsomes from liver hold many membrane-bound enzymes, among them those of drug oxidation.

A further series concerns the target T2, rat 11β-HSD1 (Rattus norvegicus, UniProt P16232).
T2 construct: Rat 11β-HSD1 in liver microsomes catalyzes the conversion of DHC to CORT; from tissue; host or cells: liver microsomes of male Sprague-Dawley rats (age 3 months), prepared in house
Description: Rat 11β-HSD1 assay in rat liver microsomes (DHC to CORT, HPLC-MS/MS). The format is biochemical. Particulars: for remaining activity at 100 µM: read-out: 11β-HSD1 residual activity relative to the control (DMSO); for Mode Action: rat 11β-HSD1, judged by α and Lineweaver-Burk plot; for α (mixed model): rat liver 11β-HSD1. The procedure: The preparation of rat liver microsomes was carried out as previously reported. In this preparation procedure, rat livers were homogenized in sucrose (0.25 M) containing PBS (0.01 M, pH 7.2). […] The pellets were resuspended in cold PBS by homogenization, and the concentration of microsomal protein was determined using the Bio-Rad Protein Assay Kit (CAT#: P0010; Beyotime, Jiangsu, China) according to the manufacturer’s instructions.
as §1, §2, §3

The mark [2] stands for this setting: rat, 100 µM compound, 200 nM DHC, 15 min.
The mark [3] stands for this setting: human liver microsomes, read-out: IC50.
Setting [4] is: substrate, rat liver microsomes, Michaelis-Menten.
Where [5] appears, read: substrate, human liver microsomes, Michaelis-Menten.

Values joined by “and” are separate entries in the source; they are usually repeats but may differ in a detail not shown here. Equal values may be shown once. Read-outs that look alike come from different tables or passages of the source. A value given as a limit tells only on which side of the number the result lay.

T1 sequence (P28845 whole entry): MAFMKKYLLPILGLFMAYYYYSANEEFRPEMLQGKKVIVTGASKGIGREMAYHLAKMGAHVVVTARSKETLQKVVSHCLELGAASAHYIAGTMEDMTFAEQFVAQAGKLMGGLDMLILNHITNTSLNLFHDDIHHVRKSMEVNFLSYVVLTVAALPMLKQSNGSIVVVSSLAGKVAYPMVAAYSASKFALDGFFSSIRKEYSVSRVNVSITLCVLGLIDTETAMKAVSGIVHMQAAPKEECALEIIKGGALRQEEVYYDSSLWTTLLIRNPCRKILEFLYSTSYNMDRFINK
T2 sequence (P16232 whole entry): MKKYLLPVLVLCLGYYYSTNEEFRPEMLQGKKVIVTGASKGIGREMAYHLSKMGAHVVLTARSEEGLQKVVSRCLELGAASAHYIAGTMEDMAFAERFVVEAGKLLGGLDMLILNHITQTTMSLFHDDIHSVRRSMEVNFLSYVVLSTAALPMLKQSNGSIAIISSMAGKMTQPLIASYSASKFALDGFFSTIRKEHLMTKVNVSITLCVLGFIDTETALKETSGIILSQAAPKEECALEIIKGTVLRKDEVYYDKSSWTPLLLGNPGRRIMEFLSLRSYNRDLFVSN

The term LogP denotes the decadic logarithm of the partition coefficient of the neutral form, usually between octanol and water. As usually defined, the IC50 is the concentration needed to halve the response being measured. With `CC(C)(c1ccc(O)cc1)c1ccc(O)cc1` [BPA, bisphenol A, reference compound], the log partition coefficient (LogP) in series [1] is 3.424 and 3.42. In addition, the half-maximal inhibitory concentration (IC50) on human 11β-HSD1 (IC50, human liver microsomes) is 297 ± 2.99 µM; against rat 11β-HSD1, 36.8 ± 1.09 µM. Besides, the remaining activity at 100 µM at human 11β-HSD1 was greater than 50%; on rat 11β-HSD1 (setting [2]), no more than 50%.
One may read the Ki as a dissociation constant, usually derived from enzyme kinetics or from competition with a known ligand. Turning to `COc1ccc(C(C)(C)c2ccc(OC)cc2)cc1` [BPAME, 4,4′-(propane-2,2-diyl)bis(methoxybenzene)], the LogP in series [1] is listed as 4.03. For the same molecule, the “Mode Action” value on human 11β-HSD1 is “competitive inhibitors”. For the same molecule, the IC50 came to 33.1 ± 0.57 µM on human 11β-HSD1 (setting [3]) and 206 ± 2.16 µM at rat 11β-HSD1 (rat liver microsomes, 200 nM DHC, 15 min, Mean ± SEM, n = 4, read-out: IC50). For the same molecule, the inhibition constant (Ki) at human 11β-HSD1 (human liver microsomes, enzyme kinetics-inhibition (mixed model), read-out: Ki (inhibition constant, measured)) worked out at 33.8 µM. The remaining activity at 100 µM on human 11β-HSD1 was no more than 50%; at rat 11β-HSD1 (setting [2]), greater than 50%.
Turning to `CC(C)c1cc(C(C)(C)c2ccc(O)c(C(C)C)c2)ccc1O` [BPG, 4,4′-(propane-2,2-diyl)bis(2-isopropylphenol)], the LogP in series [1] is 5.671. In addition, at human 11β-HSD1, the Ki was determined as 5.33 µM, the “Mode Action” value was “competitive inhibitors” and the remaining activity at 100 µM is no more than 50%. The same molecule yielded a half-inhibitory concentration (IC50) at human 11β-HSD1 (IC50, human liver microsomes) of 5.06 ± 0.07 µM. Moreover, on rat 11β-HSD1, inhibition was half-maximal at 104 ± 1.52 µM (IC50), the inhibition constant Ki came to 88.6 µM, the “Mode Action” value was “mixed/competitive inhibitors” and the “α (mixed model)” value is 5.78. Moreover, the remaining activity at 100 µM on rat 11β-HSD1 (setting [2]) was no more than 50%.
Regarding `CC(C)(c1ccc(O)c(-c2ccccc2)c1)c1ccc(O)c(-c2ccccc2)c1` [BPH, 2,2-bis(2-hydroxy-5-biphenylyl)propane], the LogP in series [1] is given as 6.758. On human 11β-HSD1, affinity was put at a Ki of 0.44 µM, the “Mode Action” value is “competitive inhibitors” and the remaining activity at 100 µM was no more than 50%. On human 11β-HSD1 (IC50, human liver microsomes), this molecule showed a 50% inhibitory concentration (IC50) of 0.75 ± 0.02 µM. At rat 11β-HSD1, the midpoint of inhibition, the IC50, lay at 74.2 ± 0.98 µM; the Ki amounted to 74.6 µM; the “Mode Action” value is recorded as “mixed/competitive inhibitors”; the “α (mixed model)” value is “∞”. In addition, at rat 11β-HSD1 (setting [2]), the remaining activity at 100 µM was no more than 50%.
Consider `C=CCc1cc(C(C)(C)c2ccc(O)c(CC=C)c2)ccc1O` [DABPA, 2,2′-diallyl BPA], for which the LogP in series [1] is reported as 4.881. At human 11β-HSD1, the affinity, expressed as Ki, was 14 µM; the “Mode Action” value is on record as “competitive inhibitors”; the remaining activity at 100 µM was no more than 50%. The molecule also registered an IC50 against human 11β-HSD1 (IC50, human liver microsomes) of 13.4 ± 0.19 µM. Half-maximal inhibition against rat 11β-HSD1 (IC50) required 132 ± 1.66 µM. Besides, the remaining activity at 100 µM on rat 11β-HSD1 (setting [2]) is greater than 50%.
For orientation: Km means the concentration of substrate that gives half-maximal velocity. As usually defined, the Vmax is the rate approached at saturating substrate. In the case of `C[C@]12CC(=O)[C@H]3[C@@H](CCC4=CC(=O)CC[C@@]43C)[C@@H]1CC[C@@H]2C(=O)CO` [DHC, 11-dehydrocorticosterone, reference compound], on rat 11β-HSD1 (setting [4]), the Michaelis constant (Km) amounted to 940 ± 90 nM and the Vmax was 1072 ± 115.5 pmol/mg/min.
For `Cc1cc(C(C)(C)c2ccc(O)c(C)c2)ccc1O` [DMBPA, 2,2-bis(4-hydroxy-3-methylphenyl)propane], in series [1], the lipophilicity (LogP) was 4.041 and 4.04. On human 11β-HSD1, the Ki was found to be 31 µM, the “Mode Action” value is “competitive inhibitors” and the remaining activity at 100 µM is no more than 50%. On human 11β-HSD1 (IC50, human liver microsomes), the half-inhibitory concentration (IC50) was found to be 30.2 ± 0.71 µM. Moreover, at rat 11β-HSD1 (setting [2]), the remaining activity at 100 µM is greater than 50%.
`Cc1cc(C(C)(C)c2cc(C)c(O)c(C)c2)cc(C)c1O` [TMBPA, 2,2-bis(4-hydroxy-3,5-dimethylphenyl)propane]: at human 11β-HSD1 (setting [3]), the IC50 amounted to 319.2 ± 2.78 µM. In addition, the remaining activity at 100 µM on human 11β-HSD1 is greater than 50%. Also, the “11β-HSD1 residual activity relative to the control (DMSO)” value on rat 11β-HSD1 (setting [2]) is “ineffective”.
With `C[C@]12CCC(=O)C=C1CC[C@@H]1[C@@H]2C(=O)C[C@@]2(C)[C@H]1CC[C@]2(O)C(=O)CO` [cortisone, reference compound], on human 11β-HSD1 (setting [5]), the Km was 930 ± 220 nM and the Vmax was determined as 253.2 ± 20.5 pmol/mg/min.
